The values that follow are results of earlier work, collected in patent publication US20220009914A1, “Analogs of Nitrofuran Antibiotics to Combat Resistance” (The Trustees of Indiana University, priority 2020, published 2022).

For one data set, the system named is SM101 E. coli. Conditions: previously found; read-out: EC50 proliferation of SM101 E. coli; cited from earlier work.
A further data set concerns the target T1, E. coli GroEL/ES (Escherichia coli, UniProt P0A6F5).
T1 construct: made in house; host or cells: GroEL in NEB 5-alpha E. coli; GroES in E. coli BL21 (DE3)
To be noted: read-out: IC50 GroEL/ES-mediated refolding of denatured rhodanese; previously found; cited from earlier work.

T1 sequence (P0A6F5 2-548): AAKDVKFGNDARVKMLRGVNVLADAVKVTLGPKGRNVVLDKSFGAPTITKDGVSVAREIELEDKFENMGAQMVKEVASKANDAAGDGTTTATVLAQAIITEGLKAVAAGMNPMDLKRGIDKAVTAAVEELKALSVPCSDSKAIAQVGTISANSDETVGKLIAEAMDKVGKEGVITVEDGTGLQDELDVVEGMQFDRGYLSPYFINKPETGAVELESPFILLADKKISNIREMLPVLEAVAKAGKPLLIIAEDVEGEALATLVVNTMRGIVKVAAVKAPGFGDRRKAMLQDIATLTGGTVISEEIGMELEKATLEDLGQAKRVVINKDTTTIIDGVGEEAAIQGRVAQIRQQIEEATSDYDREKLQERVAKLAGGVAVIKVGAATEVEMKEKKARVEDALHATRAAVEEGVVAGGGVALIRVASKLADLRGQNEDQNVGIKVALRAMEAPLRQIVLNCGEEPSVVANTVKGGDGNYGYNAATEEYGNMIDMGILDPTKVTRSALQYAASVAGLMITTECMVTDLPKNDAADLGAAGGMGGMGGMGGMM

As for `COc1ccc(C(=O)N/N=C/c2ccc(O)c3ncccc23)cc1` [Compound 1, N′-((8-hydroxyquinolin-5-yl)methylene)-4-methoxybenzohydrazide], the EC50 with SM101 E. coli was 19 µM. In addition, at E. coli GroEL/ES, the IC50 is 18 µM.
